Experimental findings from BindingDB's records for doi:10.7270/Q2DF6PMF (Nmmlsc, 2007) are described below.

One may read the IC50 as the concentration at which inhibition is half-maximal. Low readings indicate greater potency in that assay, high ones weaker potency in that assay. For orientation: Ki means the equilibrium dissociation constant of an inhibitor or competing ligand from its target. The low end stands for tighter binding, the high end for weaker binding.

Bounds are passed on as bounds.

This assay addresses T1, N-formyl peptide receptor 2 (Homo sapiens, UniProt P25090).
T1 sequence (P25090 whole entry): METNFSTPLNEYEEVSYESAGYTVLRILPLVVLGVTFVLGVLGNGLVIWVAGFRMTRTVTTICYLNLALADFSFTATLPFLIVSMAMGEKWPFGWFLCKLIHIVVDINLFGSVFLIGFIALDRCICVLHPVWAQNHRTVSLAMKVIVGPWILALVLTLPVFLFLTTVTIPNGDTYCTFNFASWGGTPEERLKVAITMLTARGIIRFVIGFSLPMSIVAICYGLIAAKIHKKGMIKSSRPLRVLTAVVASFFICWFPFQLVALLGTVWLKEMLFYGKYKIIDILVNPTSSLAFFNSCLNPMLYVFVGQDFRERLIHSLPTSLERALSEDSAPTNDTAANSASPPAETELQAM
Briefly: concentration-dependent FPRL1 ligand displacement – cell-based, FPR counter-screen, fluorescent ligand, dose response (AID 520). Background: Counterscreens check selectivity or assay interference.
In the case of `Cc1ccc(C(=O)C2C(=O)C(=O)N(Cc3ccccc3)C2c2cccnc2)o1` (stereo unspecified) [1-benzyl-3-hydroxy-4-[(5-methylfuran-2-yl)carbonyl]-5-(pyridin-3-yl)-2,5-dihydro-1H-pyrrol-2-one], the IC50 is greater than 66.7 µM and the Ki was greater than 40.3 µM.

In turn, `O=C(Cn1cnc2c(cnn2-c2ccc(F)cc2)c1=O)OCc1ccccc1` [(phenylmethyl) 2-[1-(4-fluorophenyl)-4-oxidanylidene-pyrazolo[3,4-d]pyrimidin-5-yl]ethanoate] returned an IC50 greater than 66.7 µM.

`CCC(NC(=O)Nc1cc(OC)c(OC)c(OC)c1)(C(F)(F)F)C(F)(F)F` [1-(3,4,5-trimethoxyphenyl)-3-[1,1,1-tris(fluoranyl)-2-(trifluoromethyl)butan-2-yl]urea]: the IC50 was greater than 66.7 µM.

Consider `COc1ccc(OC)c(NC(=O)C2C3CCC(C3=C(C)C)C2C(=O)O)c1` (stereo unspecified) [MLS000110216], for which the half-inhibitory concentration (IC50) is greater than 66.7 µM.

The compound `Cc1[nH]n2c(=O)c(C#N)c(-c3ccccc3)nc2c1-c1ccccc1` [SMR000047798] yielded an IC50 greater than 66.7 µM.

The compound `CC1=C(C(=O)OC(C)C)[C@]2(C(=O)N(CC(N)=O)c3ccccc32)C(C#N)C(=N)O1` (stereo partly drawn) [(3R)-6'-amino-1-(2-amino-2-keto-ethyl)-5'-cyano-2-keto-2'-methyl-spiro[indoline-3,4'-pyran]-3'-carboxylic acid isopropyl ester] registered an IC50 greater than 66.7 µM and an inhibition constant Ki greater than 40.3 µM.

Regarding `COc1ccc(-c2cn3cccnc3n2)cc1NC(=O)C1CC1` [MLS000045944], the IC50 is 7.6 µM.

On to `COc1ccccc1-n1c(CNC(=O)c2ccco2)nnc1SCC(=O)Nc1ccc(F)cc1` [SMR000021507], for which the concentration for half-maximal inhibition (IC50) is greater than 66.7 µM.

Consider `COc1cc(C2C(C(=O)c3ccc(C)o3)C(=O)C(=O)N2CCc2ccccc2)ccc1O` (stereo unspecified) [2-(3-methoxy-4-oxidanyl-phenyl)-3-(5-methylfuran-2-yl)carbonyl-4-oxidanyl-1-(2-phenylethyl)-2H-pyrrol-5-one], for which the half-inhibitory concentration (IC50) is greater than 66.7 µM and the inhibitory constant (Ki) is greater than 40.3 µM.

As for `O=C(NCCCN1CCN(c2ccc(F)cc2)CC1)c1cccc(N2CCCC2=O)c1` [MLS000046779], the IC50 is greater than 66.7 µM.

`CCCc1cc(=O)n2[nH]c(C)c(-c3ccccc3)c2n1` had an IC50 greater than 66.7 µM.

The compound `CCc1cc2c(=O)c(-c3nc4ccccc4n3C)c(COCC(=O)O)oc2cc1OC(=O)C(C)(C)C` [2-[[7-(2,2-dimethyl-1-oxopropoxy)-6-ethyl-3-(1-methyl-2-benzimidazolyl)-4-oxo-1-benzopyran-2-yl]methoxy]acetic acid] had an IC50 greater than 66.7 µM.

With `COc1ccc(OC)c(C2C(C(=O)c3cccs3)C(=O)C(=O)N2c2cc(C)on2)c1` (stereo unspecified) [2-(2,5-dimethoxyphenyl)-1-(5-methyl-1,2-oxazol-3-yl)-4-oxidanyl-3-thiophen-2-ylcarbonyl-2H-pyrrol-5-one], the IC50 is greater than 66.7 µM and the Ki was greater than 40.3 µM.

`CCOc1cccc(C(=O)C2C(=O)C(=O)N(Cc3ccco3)C2c2ccncc2)c1` (stereo unspecified) [(4Z)-1-(2-furfuryl)-4-[hydroxy(m-phenetyl)methylene]-5-(4-pyridyl)pyrrolidine-2,3-quinone]: the IC50 is greater than 66.7 µM and the Ki is greater than 40.3 µM.

`Cc1ccc(C2C(C(=O)c3ccc(Cl)cc3)C(=O)C(=O)N2CC2CCCO2)o1` (stereo unspecified) [(4Z)-4-[(4-chlorophenyl)-hydroxy-methylene]-5-(5-methyl-2-furyl)-1-(tetrahydrofurfuryl)pyrrolidine-2,3-quinone] showed an IC50 greater than 66.7 µM and a Ki greater than 40.3 µM.

Compound `Nc1ccc(Nc2ccccc2N)cc1` [(2-aminophenyl)-(4-aminophenyl)amine] came in with a half-inhibitory concentration (IC50) of 15 µM.

`COC(=O)[C@H](C(C)C)n1c(C)c(C(C)=O)c(C(C)=O)c1C` [(2S)-2-(3,4-diacetyl-2,5-dimethyl-1-pyrrolyl)-3-methylbutanoic acid methyl ester] came in with a concentration for half-maximal inhibition (IC50) greater than 66.7 µM.

`CCOc1ccc(C(=O)C2C(=O)C(=O)N(c3nc(C)c(C)s3)C2c2ccco2)cc1` (stereo unspecified) [(4Z)-1-(4,5-dimethyl-1,3-thiazol-2-yl)-4-[(4-ethoxyphenyl)-hydroxymethylidene]-5-(furan-2-yl)pyrrolidine-2,3-dione] came in with an IC50 greater than 66.7 µM and a Ki greater than 40.3 µM.

As to `COc1cc(C2C(C(=O)c3ccco3)C(=O)C(=O)N2CCc2ccccc2)ccc1O` (stereo unspecified) [3-(furan-2-carbonyl)-4-hydroxy-2-(4-hydroxy-3-methoxyphenyl)-1-(2-phenylethyl)-2H-pyrrol-5-one], the half-inhibitory concentration (IC50) was greater than 66.7 µM and the Ki is greater than 40.3 µM.

The compound `CCOC(=O)c1c(NC(=O)C2C3CCC(O3)C2C(=O)O)sc(C)c1-c1ccc(C)cc1` (stereo unspecified) [2-[[[3-ethoxycarbonyl-5-methyl-4-(4-methylphenyl)-2-thiophenyl]amino]-oxomethyl]-7-oxabicyclo[2.2.1]heptane-3-carboxylic acid] returned a half-maximal inhibitory concentration (IC50) greater than 66.7 µM.

`COCCN1C(=O)C(=O)C(C(=O)c2ccco2)C1c1cccc(Oc2ccccc2)c1` (stereo unspecified) [3-(furan-2-carbonyl)-4-hydroxy-1-(2-methoxyethyl)-2-(3-phenoxyphenyl)-2H-pyrrol-5-one] showed a concentration for half-maximal inhibition (IC50) greater than 66.7 µM and an inhibition constant (Ki) greater than 40.3 µM.

The compound `COc1ccccc1C1C(C(=O)c2ccccc2)C(=O)C(=O)N1CC(C)C` (stereo unspecified) [(4Z)-4-[hydroxy(phenyl)methylene]-1-isobutyl-5-(2-methoxyphenyl)pyrrolidine-2,3-quinone] had an IC50 greater than 66.7 µM and an inhibition constant (Ki) greater than 40.3 µM.

With `O=S(=O)(Nc1cccc2ncccc12)c1cccs1` [MLS000057468], the half-inhibitory concentration (IC50) is greater than 66.7 µM.

Compound `Cc1ccc(Nc2nc(C3CC3)cs2)cc1` [(4-cyclopropylthiazol-2-yl)-(p-tolyl)amine] yielded an IC50 greater than 66.7 µM.

As to `CCC(CCC(=O)Nc1cccc(C(=O)O)c1)C(=O)O` (stereo unspecified) [3-(4-carboxyhexanoylamino)benzoic acid], the 50% inhibitory concentration (IC50) is greater than 66.7 µM.

Compound `CC(C)CN(CC(C)C)C(=O)CS(=O)(=O)Cc1ccccc1` [2-(benzylsulfonyl)-N,N-diisobutylacetamide] showed an IC50 greater than 66.7 µM.

`Fc1ccc(-c2nnc3ccc(N4CCCC4)nn23)cc1` [3-(4-fluorophenyl)-6-(1-pyrrolidinyl)-[1,2,4]triazolo[4,3-b]pyridazine] registered an IC50 greater than 66.7 µM.

`COc1ccc(-c2cn3cccnc3n2)cc1NC(=O)C1CCCC1` [MLS000045945] displayed an IC50 greater than 66.7 µM.

The compound `COc1cc(C2C(C(=O)c3cccs3)C(=O)C(=O)N2Cc2ccco2)cc(OC)c1OC` (stereo unspecified) [1-(2-furanylmethyl)-4-hydroxy-3-[oxo(thiophen-2-yl)methyl]-2-(3,4,5-trimethoxyphenyl)-2H-pyrrol-5-one] returned a half-maximal inhibitory concentration (IC50) greater than 66.7 µM and a Ki greater than 40.3 µM.

`COc1ccc(-c2nc(-c3ccc(NC(=O)c4ccc(Br)o4)cc3)no2)cc1OC` [5-bromanyl-N-[4-[5-(3,4-dimethoxyphenyl)-1,2,4-oxadiazol-3-yl]phenyl]furan-2-carboxamide] returned an IC50 greater than 66.7 µM.

Take `COC(=O)C1(S(=O)(=O)c2cccc3nsnc23)CC1` [1-(2,1,3-benzothiadiazol-4-ylsulfonyl)-1-cyclopropanecarboxylic acid methyl ester]: the IC50 was greater than 66.7 µM.

`O=C1C(=O)N(c2ncccn2)C(c2ccc(Cl)c(Cl)c2)C1C(=O)c1ccco1` (stereo unspecified) [2-(3,4-dichlorophenyl)-3-(furan-2-carbonyl)-4-hydroxy-1-pyrimidin-2-yl-2H-pyrrol-5-one] yielded an IC50 greater than 66.7 µM and a Ki greater than 40.3 µM.

Regarding `O=c1c2c(nc3c(-c4ccc(Cl)cc4)c[nH]n13)CCCC2`, the IC50 is greater than 66.7 µM.

In turn, `CCOc1cccc(C(=O)C2C(=O)C(=O)N(CCOC)C2c2ccc(C)o2)c1` (stereo unspecified) [(4Z)-4-[(3-ethoxyphenyl)-hydroxymethylidene]-1-(2-methoxyethyl)-5-(5-methyl-2-furanyl)pyrrolidine-2,3-dione] gave a 50% inhibitory concentration (IC50) greater than 66.7 µM and an inhibitory constant (Ki) greater than 40.3 µM.

`Cc1cccc(OCC(=O)Nc2cc(C)ccc2O)c1` [MLS000100112] showed a half-maximal inhibitory concentration (IC50) greater than 66.7 µM.

As for `Cc1ccc(NC(=O)c2oc3ccc(S(=O)(=O)N4CCOCC4)cc3c2C)cc1C` [MLS000046288], the IC50 was greater than 66.7 µM.

`Oc1cc(-c2ccccc2)nc(N2CCN(Cc3ccccc3)CC2)n1` [6-phenyl-2-[4-(phenylmethyl)-1-piperazinyl]-1H-pyrimidin-4-one] returned a half-maximal inhibitory concentration (IC50) greater than 66.7 µM.

Consider `Cc1[nH]n2c(=O)c3c(nc2c1-c1cccc2ccccc12)CCC3` [MLS000530451], for which the IC50 is greater than 66.7 µM.

As to `Cc1nnc(SCc2cnc(-c3ccccc3)o2)nc1O` [MLS000061907], the IC50 is greater than 66.7 µM.

In turn, `CCCCc1c(O)n(-c2ccccc2)n(-c2ccccc2)c1=O` [3,5-Dioxo-1,2-diphenyl-4-n-butylpyrazolidine] gave a half-maximal inhibitory concentration (IC50) greater than 66.7 µM and a Ki greater than 40.3 µM.

Turning to `CC1CCN(c2nc(-c3ccccc3)c(C#N)c(=O)[nH]2)CC1` [4-hydroxy-2-(4-methylpiperidin-1-yl)-6-phenylpyrimidine-5-carbonitrile], the IC50 was greater than 66.7 µM.

The compound `COc1cc(-n2nc(C)c3c2OC(=N)C(C#N)C3c2ccccc2)c(Cl)c(Br)c1O` (stereo unspecified) [6-amino-1-(3-bromo-2-chloro-4-hydroxy-5-methoxyphenyl)-3-methyl-4-phenyl-1,4-dihydropyrano[2,3-c]pyrazole-5-carbonitrile] had an IC50 greater than 66.7 µM and an inhibition constant (Ki) greater than 40.3 µM.

The compound `Cc1cc(N2C(=O)C(=O)C(C(=O)c3ccco3)C2c2cccnc2)no1` (stereo unspecified) [3-(furan-2-carbonyl)-4-hydroxy-1-(5-methyl-1,2-oxazol-3-yl)-2-pyridin-3-yl-2H-pyrrol-5-one] registered a 50% inhibitory concentration (IC50) greater than 66.7 µM and a Ki greater than 40.3 µM.

Compound `CCC(C)(C(=O)NC1CCCC1)N(CC1CCCO1)C(=O)c1ccc2c(c1)OCO2` (stereo unspecified) [MLS000095004] had a concentration for half-maximal inhibition (IC50) greater than 66.7 µM.

Compound `COc1ccccc1-c1c(C)oc2cc(OC(=O)c3ccco3)ccc2c1=O` [[3-(2-methoxyphenyl)-2-methyl-4-oxidanylidene-chromen-7-yl] furan-2-carboxylate] yielded an IC50 greater than 66.7 µM.
